# Patent US20120148501A1, “RADIOLOGICAL IMAGE ENHANCEMENT WITH TANTALUM CLUSTERS” (priority 2010, published 2012)
# Legend:
# [1] = Solubility of purified cluster in saturated aqueous poly(vinyl alcohol) solution; type: physicochemical; details: saturated PVA (MW 50k-85k, hydrolyzed), stirred
# From the text: The solubility of (Ta6Cl12)Cl2 in an aqueous solution of saturated polyvinyl alcohol) (PVA) was investigated by stirring purified (Ta6Cl12)Cl2 with a solution of saturated PVA (MW-50k-85k, hydrolyzed). […] It appeared that PVA complexes of tantalum clusters were poorly soluble in water.
# [2] = Cluster concentration from saturated solutions in a variety of solvents (solubility); type: physicochemical
# Experimental: Optical absorbencies at ˜330 and ˜400 nm were used to track cluster concentration in solution. An approximate molar extinction coefficient was determined by dissolving an isolated and purified cluster sample in water and measuring its absorption. […] Early in the study, the highest sample concentration was 30 mM.
# Substitutional doping of divalent zinc on trivalent tantalum sites provides for a reduction in the overall cluster charge. A reduction in the overall cluster charge is also attainable by adjusting the redox chemistry of the starting mixture. Target materials include (Ta6Cl12)Cl2, (Ta6Br12)Cl2, […], (Ta6Br12)Br2, (Ta6I12)I2, (Ta6Cl11O)Cl2, (Ta6Cl11S)CI2, and (Ta5ZnCl12)Cl2. […] These compositions were targeted to elicit materials with enhanced solubility or molecular handles that could be leveraged to further enhance the solubility. […] In the table below, EtOH stands for ethyl alcohol, EG stands for ethylene glycol, PS80 stands for Polysorbate 80, DMSO stands for dimethyl sulfoxide, and EDTA stands for ethylenediaminetetraacetic acid.
# The solubility of (Ta6Cl12)Cl2 in an aqueous solution of saturated polyvinyl alcohol) (PVA) was investigated by stirring purified (Ta6Cl12)Cl2 with a solution of saturated PVA (MW-50k-85k, hydrolyzed).
# [3] = Experimental: An ultrapurified tantalum cluster of formula (Ta6Cl12)Cl2 (Ultra Purified Ta Ta:TaCl5=1.2) was dissolved in water at a concentration of 355 mM, and in ethylene glycol at a concentration of 592 mM. The resulting water solutions were subjected to radiography to gauge their X-ray absorption characteristics. The samples were loaded into 2 mL polypropylene screw cap tubes with a 1 cm inner diameter. These samples were imaged alongside four calibration standards: 1) aluminum step wedge, 2) polycarbonate step wedge, 3) tantalum foils from 0.0127 to 0.5 mm thick, and 4) a water dilution series containing from 0 to 100% by volume of GE Healthcare's iodinated contrast agent, Visipaque, that contains 320 mg I/mL, in the same 2 mL tubes. Images were collected on a GE Healthcare OEC 9900 Elite digital X-ray Imaging System with a Tri-mode Image Intensifier at 50 KeV with filament currents varied from 0.4 to 9.0 mA. FIG. 2 below is a characteristic image of candidate aqueous samples (first two samples from the left) from the left, marked A and B) alongside calibration samples.
# FIG. 3 is imaged through 8 cm of water serving as a low X-ray energy filter and simulating an arm or leg phantom to produce clinically equivalent images. […]
substance,measurement,setting,value
(Ta6Cl12)Cl2,Solubility in aqueous solution of saturated poly(vinyl alcohol),[1],most of the color was lost as a deep green precipitate formed
"(Ta6Cl12)Cl2 [Ta Red, Ta:TaCl5=1.2]","Cluster concentration from saturated solution, 5% EDTA",[2],12 mM
same,"Cluster concentration from saturated solution, DMSO",[2],2 mM
same,"Cluster concentration from saturated solution, H2O",[2],59 mM
(Ta6Cl12)Cl2 [Ultra purified Ta Red],"Cluster concentration from saturated solution, EG",[2],592 mM
same,"Cluster concentration from saturated solution, H2O",[2],355 mM
same,"Remaining soluble cluster X-ray absorption, as equivalent Visipaque calibration solution",[3],~37.5%
same,"Remaining soluble cluster X-ray absorption, as equivalent tantalum foil stack thickness",[3],~0.0889 mm
